{
  "source": "paper PMC4887995",
  "about": "“Small molecule dual-inhibitors of TRPV4 and TRPA1 for attenuation of inflammation and pain” (Scientific Reports, 2016)",
  "key": {"[1]": {"target": "TRPV4 (Rattus norvegicus, UniProt Q9ERZ8)", "sequence (Q9ERZ8 whole entry)": "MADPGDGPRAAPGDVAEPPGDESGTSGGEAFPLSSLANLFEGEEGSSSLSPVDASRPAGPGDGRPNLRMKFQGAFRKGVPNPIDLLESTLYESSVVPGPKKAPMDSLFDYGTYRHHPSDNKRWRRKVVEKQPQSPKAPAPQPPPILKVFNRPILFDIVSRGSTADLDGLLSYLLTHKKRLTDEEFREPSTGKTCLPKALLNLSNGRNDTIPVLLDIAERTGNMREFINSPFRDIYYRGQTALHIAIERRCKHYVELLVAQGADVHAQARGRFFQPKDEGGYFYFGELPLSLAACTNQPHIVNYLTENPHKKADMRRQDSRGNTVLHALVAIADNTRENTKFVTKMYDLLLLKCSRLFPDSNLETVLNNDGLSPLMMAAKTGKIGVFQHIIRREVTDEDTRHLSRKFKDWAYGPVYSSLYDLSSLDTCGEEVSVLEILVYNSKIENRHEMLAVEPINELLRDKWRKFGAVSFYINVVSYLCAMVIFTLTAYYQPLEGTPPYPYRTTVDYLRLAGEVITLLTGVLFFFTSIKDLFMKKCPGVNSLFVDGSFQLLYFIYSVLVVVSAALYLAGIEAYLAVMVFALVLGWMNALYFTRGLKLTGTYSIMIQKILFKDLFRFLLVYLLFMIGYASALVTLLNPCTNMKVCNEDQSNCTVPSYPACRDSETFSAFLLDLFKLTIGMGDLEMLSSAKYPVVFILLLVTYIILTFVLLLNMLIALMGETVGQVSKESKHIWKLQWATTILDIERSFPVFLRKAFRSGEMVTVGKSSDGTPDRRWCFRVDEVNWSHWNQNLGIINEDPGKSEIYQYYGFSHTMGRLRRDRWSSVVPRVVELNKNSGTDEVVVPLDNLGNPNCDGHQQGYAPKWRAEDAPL", "details": "for average peak ∆Ca++ concentration: ≈100 cells, vehicle control 1156", "description": "We assessed TRPV4-inhibitory potency of these synthetic compounds in a Ca^++ imaging assay in neuronal 2a (N2a) permanent tissue culture cells with directed expression of mammalian (rat) TRPV4. […] For first round assessment, all TRPV4-inhibitory compounds were used at 5 μM (Fig. 2A).\n(A) Ca^++ imaging screening of all compounds in N2A cells with directed expression of TRPV4 (rat). […] The number on each bar corresponds to average peak ∆Ca^++ concentrations in ≈100 cells. Inset: micrographs of pseudo-colored cells before and after activation with 5nM GSK101, in addition note the corresponding time course of the averaged Ca^++ signal (fura-2 Ca^++ imaging). […] Plot generated from averaged peak ∆Ca^++ concentration of ≥75 cells per data-point.\nTRPV4-eGFP from rat was used, previously found to respond to stimulation with GSK101 and hypotonicity in similar manner as native, non-fused TRPV4."}, "[2]": {"target": "TRPA1 (Mus musculus, UniProt Q8BLA8)", "sequence (Q8BLA8 whole entry)": "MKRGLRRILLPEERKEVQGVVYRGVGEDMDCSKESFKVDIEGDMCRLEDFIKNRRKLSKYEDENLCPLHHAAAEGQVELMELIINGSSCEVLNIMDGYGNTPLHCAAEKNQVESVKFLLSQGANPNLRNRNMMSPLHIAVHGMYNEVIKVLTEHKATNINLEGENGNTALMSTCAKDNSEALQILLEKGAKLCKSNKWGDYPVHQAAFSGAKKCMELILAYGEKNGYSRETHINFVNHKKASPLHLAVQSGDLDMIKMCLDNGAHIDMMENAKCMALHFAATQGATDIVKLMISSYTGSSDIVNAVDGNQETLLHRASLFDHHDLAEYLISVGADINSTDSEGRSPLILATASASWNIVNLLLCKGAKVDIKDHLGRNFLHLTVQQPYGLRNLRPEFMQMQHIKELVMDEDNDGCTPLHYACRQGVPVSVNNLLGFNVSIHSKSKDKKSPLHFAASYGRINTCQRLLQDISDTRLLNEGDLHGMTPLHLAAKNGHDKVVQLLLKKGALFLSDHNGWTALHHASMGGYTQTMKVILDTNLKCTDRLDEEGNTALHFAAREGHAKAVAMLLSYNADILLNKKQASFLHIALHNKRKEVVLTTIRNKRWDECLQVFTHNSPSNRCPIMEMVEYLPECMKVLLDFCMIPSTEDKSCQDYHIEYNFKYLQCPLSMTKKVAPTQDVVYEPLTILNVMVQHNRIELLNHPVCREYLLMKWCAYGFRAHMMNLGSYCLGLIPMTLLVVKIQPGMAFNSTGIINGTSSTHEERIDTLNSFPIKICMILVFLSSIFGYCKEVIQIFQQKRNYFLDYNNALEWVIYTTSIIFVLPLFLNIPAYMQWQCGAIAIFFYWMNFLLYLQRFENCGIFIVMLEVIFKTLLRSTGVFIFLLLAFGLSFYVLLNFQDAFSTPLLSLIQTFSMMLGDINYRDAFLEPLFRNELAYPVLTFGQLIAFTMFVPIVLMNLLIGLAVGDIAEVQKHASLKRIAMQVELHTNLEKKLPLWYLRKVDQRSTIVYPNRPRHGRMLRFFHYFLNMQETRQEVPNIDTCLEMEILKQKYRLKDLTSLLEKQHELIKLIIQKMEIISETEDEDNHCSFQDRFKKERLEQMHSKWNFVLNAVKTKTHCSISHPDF", "description": "Mean±SEM is shown, ≥100 cells per condition. […] Plot generated from averaged peak ∆Ca^++ concentration of ≥75 cells per data-point.\nN2a cells were used for directed expression of TRP ion channels as described previously[13]. […] All other channels were native channels from mouse, eGFP was co-transfected. […] Ca^++ imaging was performed as described previously[13][14][34].\nTo visualize dose-response relationships, Hill plots were conducted using the Igor Pro software program, which derived the plots based on the following equation:"}, "[3]": {"system": "formalin-evoked trigeminal irritant pain (TRPA1 contribution)", "experiment": "Trigeminal formalin irritant pain model, Trpv4-/- mice", "format": "in vivo, mouse", "details": "25 mg/kg i.p.", "protocol": "Figure 7 16-8 and 16-19 effectively attenuate formalin-evoked trigeminal irritant pain. (A) Time-course of nocifensive behavior in WT mice following whisker-pad injection of 4% formalin. The mice were pre-injected (i.p., 10 mg/kg; 15 min before formalin) with GSK205, 16-8 or 16-19. Note effective reduction of nocifensive behavior in the late “neural” phase by compounds 16-8, 16-19, not by GSK205. (B) Cumulative response binned into 3 phases: acute phase (0–5 min), interphase (5–15 min), and late “neural” phase (15–45 min). […] (C) As in (A), but also including Trpv4^−/− mice. Compounds were applied i.p. 15 min before formalin challenge, at 10 mg/kg except established TRPA1 blocker, A967079 (25 mg/kg). Previously-established attenuated nocifensive behavior in early and late phase in Trpv4^−/− mice was recapped, which was reduced further by TRPA1 blocker, A967079. (D) As in (B), plus inclusion of Trpv4^−/− mice. Robust effects of TRPA1-blocker, A967079, were mimicked equi-potently by 16-8 and 16-19 for early phase, and by 16-8 for late phase, partially by 16-19 for late phase. (A,C) show averaged behavioral metrics per time-point, bars in (B,D) represent mean ± SEM; for (D) ^*P < 0.05; ^#P < 0.005, one-way ANOVA; for all panels n = 5–8 mice/group. […] We observed significant residual irritant-pain behavior in all phases of the formalin model in Trpv4^−/− mice, consistent with our previous report[13] (Fig. 7C,D). […] A reference TRPA1-inhibitory compound, A967079, was used at 25 mg/kg body weight as a positive control to inhibit TRPA1, based on a previous report. Reduction of pain behavior in Trpv4^−/− mice was striking, more than 50% in the late neural phase. […] We conclude that compound 16-8 also functions as a potent TRPA1-inhibitor in an in-vivo irritant pain model specifically designed to assess the contribution of TRPA1 to trigeminal irritant pain, and at least as potent as an established reference TRPA1-antagonistic compound. Implementation of this model was conducted as described previously. Video-taped nocifensive behavior was assessed by investigators blinded to genotype and treatment."}, "[4]": {"system": "formalin-evoked trigeminal irritant pain", "design": "method as in PMID 25281928", "details": "intradermal injection; cited from earlier work"}, "[5]": {"system": "formalin-evoked trigeminal irritant pain", "experiment": "Trigeminal formalin irritant pain model, WT mice", "format": "in vivo, mouse", "details": "10 mg/kg i.p., 15 min before 4% formalin, 15–45 min", "protocol": "Figure 7 16-8 and 16-19 effectively attenuate formalin-evoked trigeminal irritant pain. (A) Time-course of nocifensive behavior in WT mice following whisker-pad injection of 4% formalin. The mice were pre-injected (i.p., 10 mg/kg; 15 min before formalin) with GSK205, 16-8 or 16-19. Note effective reduction of nocifensive behavior in the late “neural” phase by compounds 16-8, 16-19, not by GSK205. (B) Cumulative response binned into 3 phases: acute phase (0–5 min), interphase (5–15 min), and late “neural” phase (15–45 min). […] (C) As in (A), but also including Trpv4^−/− mice. Compounds were applied i.p. 15 min before formalin challenge, at 10 mg/kg except established TRPA1 blocker, A967079 (25 mg/kg). Previously-established attenuated nocifensive behavior in early and late phase in Trpv4^−/− mice was recapped, which was reduced further by TRPA1 blocker, A967079. (D) As in (B), plus inclusion of Trpv4^−/− mice. Robust effects of TRPA1-blocker, A967079, were mimicked equi-potently by 16-8 and 16-19 for early phase, and by 16-8 for late phase, partially by 16-19 for late phase. (A,C) show averaged behavioral metrics per time-point, bars in (B,D) represent mean ± SEM; for (D) ^*P < 0.05; ^#P < 0.005, one-way ANOVA; for all panels n = 5–8 mice/group. Implementation of this model was conducted as described previously. Video-taped nocifensive behavior was assessed by investigators blinded to genotype and treatment."}},
  "note": "“Also recorded” adds a separate entry of the source.",
  "data": [
    {"smiles": "CN(CCc1ccc(Nc2nc(-c3cccnc3)cs2)cc1)CCc1cccnc1", "note": "[16-12]", "values": [
      {"measurement": "average peak ∆Ca++ concentration", "setting": "[1]; 5 μM inhibitor, GSK101 5 nM", "value": 39.5, "unit": "nM"}
    ]},
    {"smiles": "CN(CCc1ccc(Nc2nc(-c3ccncc3)cs2)cc1)Cc1ccccc1", "note": "[16-13]", "values": [
      {"measurement": "average peak ∆Ca++ concentration", "setting": "[1]; 5 μM inhibitor, GSK101 5 nM", "value": 52, "unit": "nM"}
    ]},
    {"smiles": "CN(CCc1ccc(Nc2nc(-c3ccccn3)cs2)cc1)Cc1ccccc1", "note": "[16-14]", "values": [
      {"measurement": "average peak ∆Ca++ concentration", "setting": "[1]; 5 μM inhibitor, GSK101 5 nM", "value": 558, "unit": "nM"}
    ]},
    {"smiles": "CN(CCc1ccc(Nc2nc(-c3cccnc3)cs2)cc1)c1ccccc1", "note": "[16-16]", "values": [
      {"measurement": "average peak ∆Ca++ concentration", "setting": "[1]; 5 μM inhibitor, GSK101 5 nM", "value": 263, "unit": "nM"}
    ]},
    {"smiles": "CCN(CCc1ccc(Nc2nc(-c3cccnc3)cs2)cc1)Cc1ccccc1", "note": "[16-18]", "values": [
      {"measurement": "IC50", "setting": "[2]", "value": "> 25", "unit": "µM"},
      {"measurement": "activity vs TRPA1", "setting": "[2]; 100 μM mustard oil, N2a cells", "value": "no significant activity"},
      {"measurement": "average peak ∆Ca++ concentration", "setting": "[1]; 5 μM inhibitor, GSK101 5 nM", "value": 14, "unit": "nM"},
      {"measurement": "increased potency over GSK205", "setting": "[1]; from TRPV4 IC50 values", "value": "~5", "unit": "fold"}
    ]},
    {"smiles": "CN(CCc1ccc(Nc2ncc(-c3cccnc3)s2)cc1)Cc1ccccc1", "note": "[16-43C]", "values": [
      {"measurement": "inhibition of TRPV4-mediated Ca++ influx", "setting": "[1]; 5 μM inhibitor, GSK101 5 nM", "value": "did not inhibit Ca^++ influx"},
      {"measurement": "average peak ∆Ca++ concentration", "setting": "[1]; 5 μM inhibitor, GSK101 5 nM", "value": 1210, "unit": "nM"}
    ]},
    {"smiles": "CCC(=N\\O)/C(C)=C/c1ccc(F)cc1", "note": "[A967079, reference compound]", "values": [
      {"measurement": "reduction of pain behavior, late neural phase", "setting": "[3]", "value": "more than 50%"}
    ]},
    {"smiles": "CN(CCc1ccc(Nc2nc(-c3cccnc3)cs2)cc1)Cc1ccccc1", "note": "[GSK205, reference compound]", "values": [
      {"measurement": "IC50", "setting": "[2]", "value": 5.56, "unit": "µM"},
      {"measurement": "attenuation of trigeminal formalin-evoked pain behavior", "setting": "[4]", "value": "effective attenuation; also recorded: effective previously in a dose-dependent manner"},
      {"measurement": "pain behavior, delayed (late neural) phase", "setting": "[5]", "value": "no significant effect"},
      {"measurement": "IC50", "setting": "[1]", "value": "4.19 ± 0.71", "unit": "µM"},
      {"measurement": "average peak ∆Ca++ concentration", "setting": "[1]; 5 μM inhibitor, GSK101 5 nM", "value": 650, "unit": "nM"}
    ]}
  ]
}
